Measurements reported in the supplement of paper PMC10307832.

Legend:
Assay in all cases: relative viability (nuclei count vs DMSO), 5 days (fraction); higher = more cells survive
BEN = tested on: BEN
How it was run: (§1)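 Values are medians from duplicate plates. Each reflects relative viability, defined as the nuclei count of treated wells over that of vehicle wells. Lung cancer cell lines in 1536-well plates were pin-tool dosed one day after seeding with one drug alone or with a fixed anchor-drug dose plus five library-drug doses (not always all listed) in √10 steps, then fixed, stained and imaged at 4× after 5 days.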

EKVX = tested on: EKVX
How it was run: as §1

HARA = tested on: HARA
How it was run: as §1

HCC-366 = tested on: HCC-366
How it was run: as §1

HCC-44 = tested on: HCC-44
How it was run: as §1

HCC-827 = tested on: HCC-827
How it was run: as §1

LC-2-ad = tested on: LC-2-ad
How it was run: as §1

LOU-NH91 = tested on: LOU-NH91
How it was run: as §1

NCI-H1355 = tested on: NCI-H1355
How it was run: as §1

NCI-H1395 = tested on: NCI-H1395
How it was run: as §1

NCI-H1437 = tested on: NCI-H1437
How it was run: as §1

NCI-H1734 = tested on: NCI-H1734
How it was run: as §1

NCI-H1792 = tested on: NCI-H1792
How it was run: as §1

NCI-H2009 = tested on: NCI-H2009
How it was run: as §1

NCI-H2087 = tested on: NCI-H2087
How it was run: as §1

NCI-H2170 = tested on: NCI-H2170
How it was run: as §1

NCI-H2228 = tested on: NCI-H2228
How it was run: as §1

NCI-H2342 = tested on: NCI-H2342
How it was run: as §1

NCI-H2405 = tested on: NCI-H2405
How it was run: as §1

NCI-H647 = tested on: NCI-H647
How it was run: as §1

NCI-H661 = tested on: NCI-H661
How it was run: as §1

SK-LU-1 = tested on: SK-LU-1
How it was run: as §1

SK-MES-1 = tested on: SK-MES-1
How it was run: as §1

## C[C@@H]1CN(CC(=O)Nc2ccc3c(c2)Cc2cccc(-c4cc(=O)cc(N5CCOCC5)o4)c2S3)C[C@H](C)O1 + CC(=O)c1c(C)c2cnc(Nc3ccc(N4CCNCC4)cn3)nc2n(C2CCCC2)c1=O [Palbociclib] (partner 0.5 µM)
BEN; first compound 0.04 µM
  relative viability: 0.513
BEN; first compound 0.1265 µM
  relative viability: 0.471
BEN; first compound 0.4 µM
  relative viability: 0.481
BEN; first compound 4 µM
  relative viability: 0.452
EKVX; first compound 0.04 µM
  relative viability: 0.342
EKVX; first compound 0.1265 µM
  relative viability: 0.396
EKVX; first compound 0.4 µM
  relative viability: 0.308
EKVX; first compound 4 µM
  relative viability: 0.288
HARA; first compound 0.04 µM
  relative viability: 0.234
HARA; first compound 0.1265 µM
  relative viability: 0.186
HARA; first compound 0.4 µM
  relative viability: 0.272
HARA; first compound 4 µM
  relative viability: 0.226
HCC-366; first compound 0.04 µM
  relative viability: 0.386
HCC-366; first compound 0.1265 µM
  relative viability: 0.467
HCC-366; first compound 0.4 µM
  relative viability: 0.395
HCC-366; first compound 4 µM
  relative viability: 0.184
HCC-44; first compound 0.04 µM
  relative viability: 0.917
HCC-44; first compound 0.1265 µM
  relative viability: 0.965
HCC-44; first compound 0.4 µM
  relative viability: 0.929
HCC-44; first compound 4 µM
  relative viability: 0.919
HCC-827; first compound 0.04 µM
  relative viability: 0.502
HCC-827; first compound 0.1265 µM
  relative viability: 0.49
HCC-827; first compound 0.4 µM
  relative viability: 0.433
HCC-827; first compound 4 µM
  relative viability: 0.442
LC-2-ad; first compound 0.04 µM
  relative viability: 0.493
LC-2-ad; first compound 0.1265 µM
  relative viability: 0.465
LC-2-ad; first compound 0.4 µM
  relative viability: 0.466
LC-2-ad; first compound 4 µM
  relative viability: 0.419
LOU-NH91; first compound 0.04 µM
  relative viability: 0.536
LOU-NH91; first compound 0.1265 µM
  relative viability: 0.481
LOU-NH91; first compound 0.4 µM
  relative viability: 0.55
LOU-NH91; first compound 4 µM
  relative viability: 0.509
NCI-H1355; first compound 0.04 µM
  relative viability: 0.397
NCI-H1355; first compound 0.1265 µM
  relative viability: 0.4
NCI-H1355; first compound 0.4 µM
  relative viability: 0.404
NCI-H1355; first compound 4 µM
  relative viability: 0.385
NCI-H1395; first compound 0.1265 µM
  relative viability: 0.626
NCI-H1395; first compound 0.4 µM
  relative viability: 0.575
NCI-H1395; first compound 4 µM
  relative viability: 0.595
NCI-H1437; first compound 0.04 µM
  relative viability: 0.309
NCI-H1437; first compound 0.1265 µM
  relative viability: 0.282
NCI-H1437; first compound 0.4 µM
  relative viability: 0.327
NCI-H1437; first compound 4 µM
  relative viability: 0.255
NCI-H1734; first compound 0.04 µM
  relative viability: 0.386
NCI-H1734; first compound 0.1265 µM
  relative viability: 0.354
NCI-H1734; first compound 0.4 µM
  relative viability: 0.308
NCI-H1734; first compound 4 µM
  relative viability: 0.433
NCI-H1792; first compound 0.04 µM
  relative viability: 0.61
NCI-H1792; first compound 0.1265 µM
  relative viability: 0.594
NCI-H1792; first compound 0.4 µM
  relative viability: 0.658
NCI-H1792; first compound 4 µM
  relative viability: 0.563
NCI-H2009; first compound 0.04 µM
  relative viability: 0.216
NCI-H2009; first compound 0.1265 µM
  relative viability: 0.214
NCI-H2009; first compound 0.4 µM
  relative viability: 0.206
NCI-H2009; first compound 4 µM
  relative viability: 0.206
NCI-H2087; first compound 0.04 µM
  relative viability: 0.213
NCI-H2087; first compound 0.1265 µM
  relative viability: 0.253
NCI-H2087; first compound 0.4 µM
  relative viability: 0.244
NCI-H2087; first compound 4 µM
  relative viability: 0.267
NCI-H2170; first compound 0.04 µM
  relative viability: 0.399
NCI-H2170; first compound 0.1265 µM
  relative viability: 0.436
NCI-H2170; first compound 0.4 µM
  relative viability: 0.416
NCI-H2170; first compound 4 µM
  relative viability: 0.36
NCI-H2228; first compound 0.04 µM
  relative viability: 0.993
NCI-H2228; first compound 0.1265 µM
  relative viability: 0.743
NCI-H2228; first compound 0.4 µM
  relative viability: 0.916
NCI-H2228; first compound 4 µM
  relative viability: 0.605
NCI-H2342; first compound 0.04 µM
  relative viability: 0.525
NCI-H2342; first compound 0.1265 µM
  relative viability: 0.556
NCI-H2342; first compound 0.4 µM
  relative viability: 0.496
NCI-H2342; first compound 4 µM
  relative viability: 0.455
NCI-H2405; first compound 0.04 µM
  relative viability: 0.564
NCI-H2405; first compound 0.1265 µM
  relative viability: 0.521
NCI-H2405; first compound 0.4 µM
  relative viability: 0.486
NCI-H2405; first compound 4 µM
  relative viability: 0.506
NCI-H647; first compound 0.04 µM
  relative viability: 0.376
NCI-H647; first compound 0.1265 µM
  relative viability: 0.336
NCI-H647; first compound 0.4 µM
  relative viability: 0.444
NCI-H647; first compound 4 µM
  relative viability: 0.273
NCI-H661; first compound 0.04 µM
  relative viability: 0.404
NCI-H661; first compound 0.1265 µM
  relative viability: 0.442
NCI-H661; first compound 0.4 µM
  relative viability: 0.387
NCI-H661; first compound 4 µM
  relative viability: 0.383
SK-LU-1; first compound 0.04 µM
  relative viability: 0.434
SK-LU-1; first compound 0.1265 µM
  relative viability: 0.372
SK-LU-1; first compound 0.4 µM
  relative viability: 0.367
SK-LU-1; first compound 4 µM
  relative viability: 0.387
SK-MES-1; first compound 0.04 µM
  relative viability: 0.35
SK-MES-1; first compound 0.1265 µM
  relative viability: 0.323
SK-MES-1; first compound 0.4 µM
  relative viability: 0.309
SK-MES-1; first compound 4 µM
  relative viability: 0.302
